Data as given in US8916597B2, “Use of pyraclostrobin as safener for triticonazole for controlling harmful fungi” (BASF SE, priority 2005, dated 2014).

System: bentgrass
Experiment: Seed treatment of bentgrass: ground coverage by emerged plants (safener action)
Type: in vivo
Protocol: Seeds were treated with the two active compounds individually or with mixtures of both active compounds, and the development of the plants was then observed. When the mixtures were used, the negative effects of one or both mixing partners in the case of individual application were, if at all, observed at a reduced level.
Seeds of bentgrass were seed-treated with the products and concentrations listed. Triticonazol and Pyraclostrobin were used as 200 g/l FS-formulation.
Treated sees were planted at the day of treatment and then kept under humid conditions in the greenhouse. 9 days after plating the ground coverage by emerged plants were estimated in percentage.

COC(=O)N(OC)c1ccccc1COc1ccn(-c2ccc(Cl)cc2)n1 [Pyraclostrobin, pyraclostrobin]
% covered ground (10 g a.i./100 kg seed of each active compound (200 g/l FS-formulation), greenhouse, humid conditions, ground coverage by emerged plants estimated 9 days after planting, untreated 8.5%): 13.3%
safener action: negative effect of triticonazole on plant development (mixture versus individual application): negative effect of TTZ can be compensated
